In patent US9040091B2 (priority 2012, dated 2015):

What was measured:
[1] = Solubility of DTPA in neutral pH buffer, with and without zinc acetate; format: physicochemical
Description: As used herein, the terms “poorly absorbed drug,” “drug having low solubility,” and the like refer to a drug (in its neutral (i.e., uncharged) state) having a water solubility in neutral pH buffer of less than about 20 mg/ml. […] Thus, as used herein, DTPA (including DTPA and its salts, hydrates, solvates, complexes, etc.) is a poorly absorbed drug. […] In some embodiments, the present disclosure provides a pharmaceutical composition comprising a composition with improved aqueous solubility comprising a DTPA and zinc acetate composition of the present disclosure.

[2] = Americium-241 decorporation in dogs (urine, feces, tissue Am-241); format: in vivo, beagle dogs; settings: daily dosing days 1-14, Zn-DTPA IV 15 mg/kg, NanoDTPA 1, 2 or 6 capsules/day or 2 capsules twice/day
Description: The objective of this study was to evaluate the dose-related efficacy of daily doses of NanoDTPA capsules in male and female beagle dogs intravenously (IV) administered a soluble citrate complex of americium-241 (Am-241). Twenty-four (24) male and female beagle dogs underwent a 14-day quarantine period for acclimation. Once released from quarantine, animals were weighed and randomized into study animals or spares. The average body weight of study animals was 8.6±0.9 kg (males 9.0±1.0 kg; females 8.2±0.7 kg). After randomization, animals were acclimated to metabolism cages for 24 hours prior to radionuclide administration. Animals received a single IV administration of 241Am(III)-citrate on Day 0. One day after radionuclide administration, one of four different doses of NanoDTPA capsules [1, 2, or 6-capsules/day or 2 capsules twice/day], IV Zn-DTPA [15 mg/kg] as a positive control, or IV saline as a placebo were administered. NanoDTPA capsules, IV Zn-DTPA, or IV saline was administered on study days 1-14. Urine and feces were collected daily. Animals were euthanized on day 21 and tissues collected. Urine, fecal, and tissue samples were analyzed for Am-241 content.

[3] = Single dose pharmacokinetic testing, DTPA in blood of male beagle dogs; format: in vivo; settings: 72 hours post-dose
Description: The objective of this study was to evaluate the concentration of DTPA in blood following a single administration with either Zn-DTPA injectable solution or NanoDTPA capsules using male beagle dogs. Single dose pharmacokinetic (PK) testing groups of Zn-DTPA solution vs. NanoDTPA capsules included nine study groups used for the PK testing. Zn-DTPA solution was delivered intravenously (IV) and by mouth (per os, PO) and NanoDTPA capsules were administered PO. […] Three formulations of NanoDTPA capsules were tested to examine different formulations of NanoDTPA powder and different capsule sizes. The dose for each NanoDTPA capsule formulation was either two or six capsules and the calculated DTPA doses confirmed based on the amount of DTPA in the capsules and body weight.

[4] = Americium-241 decorporation in rats (tissue levels and excretion); format: in vivo; settings: NanoDTPA capsules PO 60 mg/kg DTPA; for liver total Am-241 activity: rat liver, Zn-DTPA IV 15 mg/kg DTPA, per 200 ul homogenized tissue
Description: The decorporation and excretion properties in rodents of oral NanoDTPA capsules at 60 mg/kg DTPA according to the present disclosure was compared to IV Zn-DTPA solution at 15 mg/kg DTPA, which is the currently licensed product available to the public. The studies were designed to provide data that systemic Am-241 at a single low dose followed by oral NanoDTPA capsules can provide a sufficient radiation dose reduction as an efficacy endpoint. All DTPA dosing was initiated 24 hours post-exposure to isotope (Am-241) in this set of studies to simulate a realistic emergency response time following exposure. Two sets of measurements were made: (1) internal tissue levels at 2, 4, and 7 days vs. (2) daily excreted concentrations in urine and feces.
There was a general trend of tissue reduction in all groups over the 3, 5, and 8 day observation period. All data are expressed as total Am-241 activity in nCi per 200 ul blood, homogenized tissue, or output (urine and feces).

Compound	increase of the solubility of DTPA ([1]; about 10 mg/ml zinc acetate)	solubility of DTPA with zinc acetate ([1]; about 10 mg/ml zinc acetate)	increase of the solubility of DTPA ([1]; about 20 mg/ml zinc acetate)	solubility of DTPA with zinc acetate ([1]; about 20 mg/ml zinc acetate)	solubility in neutral pH buffer ([1]; neutral pH buffer, no additive) [mg/ml]	Am-241 activity excreted in the urine compared to the saline placebo [2]	percent bioavailability ([3]; PO 6 mg DTPA/kg) [%]	percent bioavailability ([3]; PO 60 mg DTPA/kg) [%]	liver total Am-241 activity ([4]; after 2 doses, dosing from 24 h post-exposure)	liver total Am-241 activity ([4]; after 4 doses)	liver total Am-241 activity ([4]; after 7 doses)	tissue Am-241 concentrations compared to control animals receiving no DTPA treatment ([4]; rats, Zn-DTPA IV 15 mg/kg)
O=C(O)CN(CCN(CC(=O)O)CC(=O)O)CCN(CC(=O)O)CC(=O)O [DTPA, diethylenetriaminepentaacetate]	about 35%	about 23.3 mg/ml	about 83%	about 31.5 mg/ml	< 17.2							
O=C([O-])CN(CCN(CC(=O)[O-])CC(=O)[O-])CCN(CC(=O)[O-])CC(=O)[O-].[Na+].[Na+].[Na+].[Zn+2] [Zn-DTPA]						approximately 9.4 times	12.26	12.67	116.37+/−26.90 nCi	81.70+/−11.53 nCi	55.42+/−19.68 nCi	significantly lower
